Experimental data taken from PubChem BioAssay (NCI).
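Protocol summary: plate cells (96-well), add compound at 5 concentrations, incubate 48 h, interpolate endpoints linearly. GI50 is the concentration that inhibits growth by half. At the TGI there is no net growth.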

What was measured:
Test in all cases: DTP human tumour cell line panel, 48 h
A498 renal = test system: A498 renal
COLO 205 colon = test system: COLO 205 colon
EKVX NSCLC = test system: EKVX NSCLC
MALME-3M melanoma = test system: MALME-3M melanoma
OVCAR-8 ovarian = test system: OVCAR-8 ovarian
PC-3 prostate = test system: PC-3 prostate
SK-MEL-28 melanoma = test system: SK-MEL-28 melanoma
SK-MEL-5 melanoma = test system: SK-MEL-5 melanoma
SNB-19 CNS = test system: SNB-19 CNS
UACC-62 melanoma = test system: UACC-62 melanoma

CSC1=Nc2c(c(C)c(-c3ccccc3)n2CCCCl)C2=NC(=O)CN12
GI50 (A498 renal): 3.89 µM
TGI (A498 renal): 15 µM
GI50 (COLO 205 colon): 4.13 µM
TGI (COLO 205 colon): 15.2 µM
GI50 (EKVX NSCLC): 6.89 µM
TGI (EKVX NSCLC): 31 µM
GI50 (MALME-3M melanoma): 8.38 µM
TGI (MALME-3M melanoma): 23.5 µM
GI50 (OVCAR-8 ovarian): 16.3 µM
TGI (OVCAR-8 ovarian): 72.8 µM
GI50 (PC-3 prostate): 8.68 µM
TGI (PC-3 prostate): > 100 µM
GI50 (SK-MEL-28 melanoma): 10.2 µM
TGI (SK-MEL-28 melanoma): 25.4 µM
GI50 (SK-MEL-5 melanoma): 3.49 µM
TGI (SK-MEL-5 melanoma): 14.1 µM
GI50 (SNB-19 CNS): 3.97 µM
TGI (SNB-19 CNS): 17.8 µM
GI50 (UACC-62 melanoma): 2.08 µM
TGI (UACC-62 melanoma): 11.6 µM

CCc1nc(-n2c(CC)nc3ccccc3c2=O)nc(N)c1-c1ccc(Cl)cc1
GI50 (A498 renal): 27.2 µM
TGI (A498 renal): > 94.5 µM
GI50 (COLO 205 colon): 19.3 µM
TGI (COLO 205 colon): > 79.3 µM
GI50 (EKVX NSCLC): 99 µM
TGI (EKVX NSCLC): > 100 µM
GI50 (MALME-3M melanoma): > 80.1 µM
TGI (MALME-3M melanoma): > 100 µM
GI50 (OVCAR-8 ovarian): 6.65 µM
TGI (OVCAR-8 ovarian): > 100 µM
GI50 (PC-3 prostate): 5.74 µM
TGI (PC-3 prostate): > 100 µM
GI50 (SK-MEL-28 melanoma): > 100 µM
TGI (SK-MEL-28 melanoma): > 100 µM
GI50 (SK-MEL-5 melanoma): 6.84 µM
TGI (SK-MEL-5 melanoma): > 100 µM
GI50 (SNB-19 CNS): > 81.1 µM
TGI (SNB-19 CNS): > 100 µM
GI50 (UACC-62 melanoma): 5.46 µM
TGI (UACC-62 melanoma): > 100 µM

Clc1ccccc1-c1nc(-c2ccncc2)no1
TGI (A498 renal): > 100 µM
TGI (COLO 205 colon): > 100 µM
TGI (EKVX NSCLC): > 100 µM
TGI (MALME-3M melanoma): > 100 µM
TGI (OVCAR-8 ovarian): > 100 µM
TGI (PC-3 prostate): > 100 µM
TGI (SK-MEL-28 melanoma): > 100 µM
TGI (SK-MEL-5 melanoma): 56.4 µM
TGI (SNB-19 CNS): > 100 µM
TGI (UACC-62 melanoma): > 100 µM

COc1ccc(S(=O)(=O)NC2=NCCN2C(=S)SN2CCn3c2nsc3=S)cc1OC
GI50 (A498 renal): 37.3 µM
TGI (A498 renal): > 100 µM
GI50 (COLO 205 colon): 12.5 µM
TGI (COLO 205 colon): 29 µM
GI50 (EKVX NSCLC): 50.1 µM
TGI (EKVX NSCLC): > 100 µM
GI50 (MALME-3M melanoma): 16.7 µM
TGI (MALME-3M melanoma): 43.7 µM
GI50 (OVCAR-8 ovarian): 29.5 µM
TGI (OVCAR-8 ovarian): > 100 µM
GI50 (PC-3 prostate): 27.1 µM
TGI (PC-3 prostate): 94 µM
GI50 (SK-MEL-28 melanoma): 16.5 µM
TGI (SK-MEL-28 melanoma): 37.5 µM
GI50 (SK-MEL-5 melanoma): 25.3 µM
TGI (SK-MEL-5 melanoma): 74.1 µM
GI50 (SNB-19 CNS): 26.6 µM
TGI (SNB-19 CNS): > 100 µM
GI50 (UACC-62 melanoma): 16.3 µM
TGI (UACC-62 melanoma): 38 µM

CCCCCCCCCCCCOC1C(CNCC2OC3OC(C)(C)OC3C2NC(=O)Nc2ccc(C(F)(F)F)cc2)OC2OC(C)(C)OC21 (stereo not given)
GI50 (A498 renal): 8.45 µM
TGI (A498 renal): 15.5 µM
GI50 (COLO 205 colon): 3.26 µM
TGI (COLO 205 colon): 7.32 µM
GI50 (EKVX NSCLC): 7.49 µM
TGI (EKVX NSCLC): 14.5 µM
GI50 (MALME-3M melanoma): 3.39 µM
TGI (MALME-3M melanoma): 13.7 µM
GI50 (OVCAR-8 ovarian): 6.81 µM
TGI (OVCAR-8 ovarian): 18.1 µM
GI50 (PC-3 prostate): 6.68 µM
TGI (PC-3 prostate): 13.2 µM
GI50 (SK-MEL-28 melanoma): 7.28 µM
TGI (SK-MEL-28 melanoma): 14.5 µM
GI50 (SK-MEL-5 melanoma): 8.15 µM
TGI (SK-MEL-5 melanoma): 15.1 µM
GI50 (SNB-19 CNS): 9.07 µM
TGI (SNB-19 CNS): 18 µM
GI50 (UACC-62 melanoma): 8.63 µM
TGI (UACC-62 melanoma): 15.9 µM

CCC(C(=O)c1cccs1)C(O)(C(F)(F)F)C(F)(F)F (stereo not given)
TGI (A498 renal): > 100 µM
TGI (COLO 205 colon): > 100 µM
TGI (EKVX NSCLC): > 100 µM
TGI (MALME-3M melanoma): > 100 µM
TGI (OVCAR-8 ovarian): > 100 µM
TGI (PC-3 prostate): > 100 µM
TGI (SK-MEL-28 melanoma): > 100 µM
TGI (SK-MEL-5 melanoma): > 100 µM
TGI (SNB-19 CNS): > 100 µM
TGI (UACC-62 melanoma): > 100 µM

O=C1OCC2=C1C(c1cccc(C(F)(F)F)c1)c1cc3c(cc1N2CCO)OCO3 (stereo not given)
GI50 (A498 renal): 1.08 µM
TGI (A498 renal): 10.9 µM
GI50 (COLO 205 colon): 1.18 µM
TGI (COLO 205 colon): 3.26 µM
GI50 (EKVX NSCLC): 1.75 µM
TGI (EKVX NSCLC): > 50 µM
GI50 (MALME-3M melanoma): 2.67 µM
TGI (MALME-3M melanoma): > 50 µM
GI50 (OVCAR-8 ovarian): 2.51 µM
TGI (OVCAR-8 ovarian): > 50 µM
GI50 (PC-3 prostate): 0.926 µM
TGI (PC-3 prostate): > 50 µM
GI50 (SK-MEL-28 melanoma): 4.54 µM
TGI (SK-MEL-28 melanoma): > 50 µM
GI50 (SK-MEL-5 melanoma): 0.937 µM
TGI (SK-MEL-5 melanoma): 15.9 µM
GI50 (SNB-19 CNS): 1.62 µM
TGI (SNB-19 CNS): > 50 µM
GI50 (UACC-62 melanoma): 1.14 µM
TGI (UACC-62 melanoma): > 50 µM

COc1ccc2c(O)c(/C=C3\N=Nc4ncccc43)oc2c1C[C@H]1CCNC[C@H]1F
GI50 (A498 renal): 0.238 µM
TGI (A498 renal): 2.91 µM
GI50 (COLO 205 colon): 0.24 µM
TGI (COLO 205 colon): 0.806 µM
GI50 (EKVX NSCLC): 0.484 µM
TGI (EKVX NSCLC): 9.62 µM
GI50 (MALME-3M melanoma): 1.61 µM
TGI (MALME-3M melanoma): 5.15 µM
GI50 (OVCAR-8 ovarian): 0.477 µM
TGI (OVCAR-8 ovarian): 12.3 µM
GI50 (PC-3 prostate): 0.267 µM
TGI (PC-3 prostate): 11.1 µM
GI50 (SK-MEL-28 melanoma): 2.22 µM
TGI (SK-MEL-28 melanoma): 12 µM
GI50 (SK-MEL-5 melanoma): 0.942 µM
TGI (SK-MEL-5 melanoma): 10.6 µM
GI50 (SNB-19 CNS): 0.419 µM
TGI (SNB-19 CNS): 11.6 µM
GI50 (UACC-62 melanoma): 0.476 µM
TGI (UACC-62 melanoma): 2.38 µM
